Results reported in patent US20070117152A1, “Biosensor” (FUJIFILM Corporation, priority 2005, published 2007).

Columns and labels:
Carbonic anhydrase = Carbonic anhydrase (Bos taurus, UniProt P00921); test: Evaluation of binding ability of hydrochlorothiazide on CA-immobilized chip by surface plasmon resonance (Example 1); details: 50 μM in 1×PBS pH 7.4
Protocol: (§1) The solution in the measurement chip was removed, and the dielectric block was covered with silicone rubber to prepare a cell having an internal volume of 15 μl. The silicone rubber cover was provided with two pores with diameters of 1 mm, and a teflon tube (i.d.: 0.5 mm; o.d.: 1 mm) was allowed to path therethrough to prepare a flow channel system. The chip provided with such flow channel system was mounted on the surface plasmon resonance measurement device of the present invention. Hereafter, liquid exchange was carried out by pouring 500 μl of liquid for 5 seconds.
The flow channel was filled with 70 μl of a mixed solution of 200 mM EDC (N-ethyl-N′-(3-dimethylaminopropyl)carbodiimide hydrochloride) and 50 mM NHS (N-hydroxysuccinimide), and was then allowed to stand for 10 minutes. […] The amount of the immobilized proteins was determined based on changes in signal intensities before and after protein immobilization.
[…] Based on the signal intensity before liquid exchange, changes in the signal intensity were measured at intervals of 0.5 seconds. […] Changes in signal intensities were determined from 5 seconds before the initiation of the exchange to 2 minutes after the exchange.

[1] = molecular target: T1, Bovine Carbonic Anhydrase (Bos taurus, UniProt P00921); test: Evaluation of binding ability of hydrochlorothiazide on CA-immobilized chip by surface plasmon resonance (Example 2); details: 50 μM in 1×PBS pH 7.4
T1 construct: purchased SIGMA
T1 sequence (P00921 whole entry): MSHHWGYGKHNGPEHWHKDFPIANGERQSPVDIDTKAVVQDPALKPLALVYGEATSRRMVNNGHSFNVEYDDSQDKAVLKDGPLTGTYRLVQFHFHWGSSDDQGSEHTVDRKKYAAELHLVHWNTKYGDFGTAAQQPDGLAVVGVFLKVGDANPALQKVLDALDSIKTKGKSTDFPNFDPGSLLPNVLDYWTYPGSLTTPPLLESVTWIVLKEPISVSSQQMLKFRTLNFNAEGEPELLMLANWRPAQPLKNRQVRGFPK
Protocol: as §1
The flow channel was filled with 70 μl of a mixed solution of 200 mM EDC (N-ethyl-N′-(3-dimethylaminopropyl)carbodiimide hydrochloride) and 50 mM NHS (N-hydroxysuccinimide), and was then allowed to stand for 10 minutes. After the liquid exchange was carried out twice with 100 μl of Acetate 5.0 buffer (BIAcore), the liquid was exchanged with the acetate 5.0 solution containing Bovine Carbonic Anhydrase (hereinafter referred to as CA) (SIGMA) with the concentration shown in Table 2, and the resultant was allowed to stand for a certain period to immobilize CA. The inside of the chip was exchanged with 1 M ethanolamine solution and was then allowed to stand for 10 minutes. The interior of the chip was exchanged twice with 100 μl of Acetate 5.0 buffer to prepare CA-immobilized chip. The amount of the immobilized proteins was determined based on changes in signal intensities before and after CA immobilization. Also, the period for adding CA solution is changed, and the minimum period necessary to achieve the immobilized CA amount of 3000 RU or more was determined.
The flow channel system of the CA-immobilized chips, the amount of CA immobilized thereto was approximately 3,000 RU, was filled with 1×PBS buffer (pH 7.4). Based on the signal intensity before liquid exchange, changes in the signal intensity were measured at intervals of 0.5 seconds. The content of the flow channel system was exchanged with a hydrochlorothiazide solution (Sigma) (dissolved in 1×PBS (pH 7.4) to result in 50 μM therein). Changes in signal intensities were determined from 5 seconds before the initiation of the exchange to 2 minutes after the exchange.

Sequence of Carbonic anhydrase (P00921 whole entry): as above

NS(=O)(=O)c1cc2c(cc1Cl)NCNS2(=O)=O [Hydrochlorothiazide, hydrochlorothiazide]
Hydrochlorothiazide Binding amount (Carbonic anhydrase; Level 1: dextran (branched) chip, carbonic anhydrase immobilized 1500 RU): 5 RU
Hydrochlorothiazide Binding amount (Carbonic anhydrase; Level 5: pullulan (linear) chip, carbonic anhydrase immobilized 2500 RU): 10 RU
Hydrochlorothiazide Binding amount ([1]; Level 2: dextran 15% by weight chip, CA 200 μg/ml): −15 RU
Hydrochlorothiazide Binding amount ([1]; Level 3: dextran 25% by weight chip, CA 20 μg/ml): 2 RU
Hydrochlorothiazide Binding amount ([1]; Level 4: dextran 25% by weight chip, CA 200 μg/ml): −30 RU
Hydrochlorothiazide Binding amount ([1]; Level 5: amylose 10% by weight chip, CA 20 μg/ml): 17 RU
Hydrochlorothiazide Binding amount ([1]; Level 6: amylose 10% by weight chip, CA 200 μg/ml): 11 RU
Hydrochlorothiazide Binding amount ([1]; Level 7: amylose 15% by weight chip, CA 20 μg/ml): 15 RU
Hydrochlorothiazide Binding amount ([1]; Level 8: amylose 15% by weight chip, CA 200 μg/ml): 10 RU
